Reference: PMC6587565 (Diabetes, Obesity & Metabolism, 2018)
Where two headings read alike, the source gives them in different places.

Assays:
[1] = format: in vivo, human
[2] = test system: plasma glucose (PG) in patients with type 1 diabetes mellitus; format: in vivo, human; conditions: for AUE0-30min / AUE0-240min (area under plasma glucose excursions above baseline) / CE30min (plasma glucose excursion at 30 minutes) / CEmax (maximum plasma glucose excursion) / tCEmax (time to maximum plasma glucose excursion) / tPG increase ≥ 20 mg/dL (time to increase in plasma glucose ≥[…]) / tPG ≥70 mg/dL (time to reach plasma glucose ≥[…]): T1DM patients; for AUE0-30min / AUE0-240min (area under plasma glucose excursions above baseline) / CE30min (plasma glucose excursion at 30 minutes) / CEmax (maximum plasma glucose excursion): mean (SD), SD; for tCEmax (time to maximum plasma glucose excursion) / tPG increase ≥ 20 mg/dL (time to increase in plasma glucose ≥[…]) / tPG ≥70 mg/dL (time to reach plasma glucose ≥[…]): median (range)
[3] = test system: patients with type 1 diabetes mellitus; test: Safety: adverse events, hypoglycaemic episodes, local tolerability; format: in vivo, human
[4] = hypoglycaemia, single s.c. dose 0.03 mg, T1DM patients, mean (SD), N=14, SD
[5] = euglycaemia, single s.c. dose 0.6 mg, N=17
[6] = hypoglycaemia, single s.c. dose 0.03 mg, N=17
[7] = hypoglycaemia, single s.c. dose 0.08 mg, N=17
[8] = hypoglycaemia, single s.c. dose 0.2 mg, N=17
[9] = hypoglycaemia, single s.c. dose 0.6 mg, N=17

Compound: CC(C)C[C@H](NC(=O)[C@H](Cc1c[nH]c2ccccc12)NC(=O)[C@H](CCCCN)NC(=O)[C@@H](NC(=O)[C@H](Cc1ccccc1)NC(=O)[C@H](CCC(=O)O)NC(=O)[C@H](CCC(=O)O)NC(=O)[C@H](C)NC(=O)[C@H](CCCNC(=N)N)NC(=O)[C@H](C)NC(=O)C(C)(C)NC(=O)[C@H](CC(=O)O)NC(=O)[C@H](CC(C)C)NC(=O)[C@H](Cc1ccc(O)cc1)NC(=O)[C@H](CCCCN)NC(=O)[C@H](CO)NC(=O)[C@H](Cc1ccc(O)cc1)NC(=O)[C@H](CC(=O)O)NC(=O)[C@H](CO)NC(=O)[C@@H](NC(=O)[C@H](Cc1ccccc1)NC(=O)[C@@H](NC(=O)CNC(=O)[C@H](CCC(N)=O)NC(=O)[C@H](CO)NC(=O)[C@@H](N)Cc1c[nH]cn1)[C@@H](C)O)[C@@H](C)O)C(C)C)C(=O)N[C@@H](CCC(=O)O)C(=O)N[C@@H](CO)C(=O)N[C@H](C(=O)O)[C@@H](C)O [Dasiglucagon, dasiglucagon]
- AUC0-inf ([1]; euglycaemia, single s.c. dose 0.6 mg, T1DM patients, mean (SD), N=17, SD): 3710 (585) pmol*h/L
- Tmax ([1]; euglycaemia, single s.c. dose 0.6 mg, T1DM patients, median (range), N=17): 0.5 (0.25‐1) h
- Tmax ([1]; human, plasma, sc, 0.03 mg): 30 min
- CL/F ([1]; human, plasma, sc, 0.03 mg, SD): 863 mL/min
- half-life ([1]; human, plasma, sc, 0.03 mg, SD): 22.9 min
- Tmax ([1]; human, plasma, sc, 0.08 mg): 30 min
- CL/F ([1]; human, plasma, sc, 0.08 mg, SD): 688 mL/min
- half-life ([1]; human, plasma, sc, 0.08 mg, SD): 28.4 min
- Tmax ([1]; human, plasma, sc, 0.2 mg): 30 min
- half-life ([1]; human, plasma, sc, 0.2 mg, SD): 33.9 min
- Tmax ([1]; human, plasma, sc, 0.6 mg): 30 min
- AUC0-inf [1, 4]: 182 (45.9) pmol*h/L
- CL/f (total body clearance) [1, 4]: 52.6 (16.7) L/h
- AUC0-240min ([1]; hypoglycaemia, single s.c. dose 0.03 mg, T1DM patients, mean (SD), N=17, SD): 174 (43.1) pmol*h/L
- Tmax ([1]; hypoglycaemia, single s.c. dose 0.03 mg, T1DM patients, median (range), N=17): 0.5 (0.25‐1) h
- t1/2 (terminal elimination half-life) ([1]; hypoglycaemia, single s.c. dose 0.08 mg, T1DM patients, mean (SD), N=16, SD): 0.472 (0.154) h
- Tmax ([1]; hypoglycaemia, single s.c. dose 0.08 mg, T1DM patients, median (range), N=17): 0.5 (0.25‐1) h
- Median time (range) to an increase in PG of at least […] (20 mg/dL) ([2]; 0.03 mg s.c., at both euglycaemia and hypoglycaemia): < 20 (18‐19.5) minutes
- AUE0-30min [2, 5]: 18.3 (5.25) mg*h/dL
- AUE0-240min (area under plasma glucose excursions above baseline) [2, 5]: 479 (159) mg*h/dL
- CE30min (plasma glucose excursion at 30 minutes) [2, 5]: 79.8 (23.4) mg/dL
- CEmax (maximum plasma glucose excursion) [2, 5]: 165 (46.1) mg/dL
- tCEmax (time to maximum plasma glucose excursion) [2, 5]: 90.0 (70‐240) min
- tPG increase ≥ 20 mg/dL (time to increase in plasma glucose ≥[…]) [2, 5]: 10.0 (8‐14) min
- Patients achieving a PG level of at least […] within 30 minutes post-dose ([2]; hypoglycaemia, dose levels of 0.08 mg and above): 100%
- Patients achieving a PG level of at least […] within 30 minutes post-dose ([2]; hypoglycaemia, lowest dose level (0.03 mg)): 70.6%
- AUE0-30min [2, 6]: 4.60 (5.24) mg*h/dL
- AUE0-240min (area under plasma glucose excursions above baseline) [2, 6]: 70.6 (100) mg*h/dL
- CE30min (plasma glucose excursion at 30 minutes) [2, 6]: 23.7 (24.9) mg/dL
- CEmax (maximum plasma glucose excursion) [2, 6]: 37.9 (38.9) mg/dL
- tPG increase ≥ 20 mg/dL (time to increase in plasma glucose ≥[…]) ([2]; hypoglycaemia, single s.c. dose 0.03 mg, N=10): 19.5 (12‐42) min
- tPG ≥70 mg/dL (time to reach plasma glucose ≥[…]) ([2]; hypoglycaemia, single s.c. dose 0.03 mg, N=13): 14.0 (5‐37) min
- tCEmax (time to maximum plasma glucose excursion) [2, 6]: 50.0 (0‐90) min
- AUE0-30min [2, 7]: 14.3 (10.1) mg*h/dL
- AUE0-240min (area under plasma glucose excursions above baseline) [2, 7]: 249 (201) mg*h/dL
- CE30min (plasma glucose excursion at 30 minutes) [2, 7]: 63.9 (38.6) mg/dL
- CEmax (maximum plasma glucose excursion) [2, 7]: 106 (61.1) mg/dL
- tCEmax (time to maximum plasma glucose excursion) [2, 7]: 70.0 (50‐90) min
- tPG increase ≥ 20 mg/dL (time to increase in plasma glucose ≥[…]) [2, 7]: 14.0 (7‐48) min
- tPG ≥70 mg/dL (time to reach plasma glucose ≥[…]) [2, 7]: 10.0 (2‐27) min
- AUE0-30min [2, 8]: 19.0 (6.43) mg*h/dL
- AUE0-240min (area under plasma glucose excursions above baseline) [2, 8]: 406 (175) mg*h/dL
- CE30min (plasma glucose excursion at 30 minutes) [2, 8]: 86.8 (27.2) mg/dL
- CEmax (maximum plasma glucose excursion) [2, 8]: 154 (48.4) mg/dL
- tCEmax (time to maximum plasma glucose excursion) [2, 8]: 90.0 (70‐150) min
- tPG increase ≥ 20 mg/dL (time to increase in plasma glucose ≥[…]) [2, 8]: 11.0 (8‐20) min
- tPG ≥70 mg/dL (time to reach plasma glucose ≥[…]) [2, 8]: 6.0 (5‐11) min
- AUE0-30min [2, 9]: 21.9 (5.68) mg*h/dL
- AUE0-240min (area under plasma glucose excursions above baseline) [2, 9]: 535 (187) mg*h/dL
- CE30min (plasma glucose excursion at 30 minutes) [2, 9]: 94.2 (21.9) mg/dL
- CEmax (maximum plasma glucose excursion) [2, 9]: 192 (54.1) mg/dL
- tCEmax (time to maximum plasma glucose excursion) [2, 9]: 90.0 (70‐150) min
- tPG increase ≥ 20 mg/dL (time to increase in plasma glucose ≥[…]) [2, 9]: 9.00 (8‐14) min
- tPG ≥70 mg/dL (time to reach plasma glucose ≥[…]) [2, 9]: 6.0 (2‐8) min
- Total hypoglycaemic events ([3]; 17 completers, range of small doses (0.03-0.2 mg)): 18
- Overall safety and tolerability ([3]; all doses (0.03-0.6 mg s.c.)): safe and well tolerated
